From patent US10533018B2, “Antimicrobial prochelators to target drug-resistant bacteria and methods of making and using the same” (Duke University, priority 2015, dated 2020) come the findings set out here.

In one test the test system is UTI89 E. coli. The experiment in a line: Broth microdilution growth inhibition (OD600). It counts as cell-based, Escherichia coli. The settings on record: UTI89 E. coli. The source says: (§1) Bacterial culture reagents including LB broth (Lennox), agar-agar, ampicillin, and ceftriaxone were purchased from Sigma Aldrich Corp. The Escherichia coli (E. coli) K12 strain HB101 and pGLO E. coli transformation kit purchased from Bio-Rad Laboratories Inc. HB101 was transformed with the bla gene via the pGLO plasmid. The bla gene encodes for a TEM-1 β-lactamase that imparts penicillin resistance to the mutant E. coli K-12 strain (+Bla). Strains E. coli UTI89, [27] pCOM-GFP-transformed E. coli UTI89 (pCOM-GFP), [28] and Methicillin-Resistant Staphylococcus aureus (MRSA) clone USA300 [29] have been previously described. The Extended-Spectrum β-Lactamase (ESBL) E. coli, Klebsiella pneumonia (Klebs), and Pseudomonas aeruginosa (Pseudo) strains were clinical isolates acquired deidentified from Duke Hospital and tested for antibiotic susceptibility in the Clinical Microbiology Laboratory using standard clinical susceptibility methods.
(§2) Cultures were incubated on LB (Lennox, Sigma) agar at 37° C. in ambient atmospheric composition. Before beginning an experiment, a single bacterial colony grown on LB agar was resuspended in 2 mL LB broth and incubated overnight to form a turbid cell suspension. The overnight culture was diluted 1:100 in LB and used immediately as the working culture. To assess the antibacterial activity of compounds, the working bacterial culture was aliquoted in a clear, flat-bottomed, 96-well polystyrene plate (Costar) and the compound of interest was added in 2-fold serial dilution from 500 to 1 μM. Plates were covered with a breathable sealing film (Aeroseal, Genesee Scientific) and incubated at 37° C. in ambient atmospheric composition with shaking at 200 rpm. Optical density at 600 nm was recorded after 4 h and 20 h for each well using a standard OD600 protocol with LB serving as the blank. The resulting dose-response curves were fit to a nonlinear regression in GraphPad Prism Version 6 to calculate the IC50 of DB4-51 in each strain.
The ability of DB4-162 to inhibit bacterial growth was assessed by a traditional broth microdilution method that assesses the turbidity of liquid cultures in the presence of varying concentrations of the compound. As described above for DB4-51, the antibacterial properties of the prochelator DB4-162 were assessed in non-pathogenic lab-strain HB101K-12 E. coli and compared to the pGLO-transfected mutant HB101K-12 E. coli that express β-lactamase. Clinically relevant pathogenic bacteria were also screened, including UTI89 E. coli, pCOM transfected UTI89 E. coli (pCOM), extended spectrum β-lactamase (ESBL) E. coli, methicillin-resistant Staphylococcus aureus (MRSA), and Klebsiella pneumonia (Klebs). In addition to being naturally resistant to many β-lactam antibiotics, MRSA can produce a number of β-lactamases. […] It should be noted that all of the bacteria tested are gram-negative except for gram-positive MRSA.
The goal of this screen was to calculate the IC50 of the prochelator in a series of pathogenic bacteria and compare these values to the IC50 of known antibiotics in those same strains to determine the relative effectiveness of DB4-162 against the drug-resistant and drug-susceptible bacteria in comparison to current antibiotic treatment options. Bacterial growth was monitored in LB broth at 37° C. in the presence and absence of DB4-162 for 20 hours. A concentration gradient of DB4-162 from 500 to 0 μM was used to screen all 7 strains of bacteria and the dose-response curves were fit to a […] to calculate the IC50 of DB4-162 in each strain. These IC50 values are an approximation of how effectively DB4-162 inhibits the growth of each bacterial strain in vitro.
IC50 values for ampicillin were calculated via broth microdilution in LB broth only. Values are listed as the mean followed by the 95% confidence interval about the mean. Mean and confidence intervals were calculated from a variable slope, nonlinear regression fit to the dose-response OD600 data. […]

The test system of test [1] is clinical isolates of Klebsiella pneumonia (Klebs). Briefly: Broth microdilution in Klebs clinical isolates. It counts as cell-based. The note with it: Klebsiella pneumoniae, LB broth.
Source text: as §1, §2
(In general: Dilution methods test growth across graded concentrations, often in twofold steps.)

Test [2] deals with susceptible E. coli HB101 K-12 (no β-lactamase). Briefly: Broth microdilution (preliminary, Table 1), susceptible K-12. It counts as cell-based, Escherichia coli. The note with it: for IC50: Escherichia coli, Susceptable K-12 E. coli, LB, OD600, preliminary results. How it is done:
In order to determine the antibiotic activity of DB4-51, a debilitated strain of Escherichia coli (HB101 K-12) was transformed with the pGLO plasmid from Bio-Rad in order to express β-lactamase. This transformation was confirmed by growing on a selective medium containing 100 μg/ml ampicillin in Lennox LB with 1.5% agar. A broth microdilution assay was employed to determine the relative activity of DB4-51 against susceptible (HB 101 K-12, no β-lactamase) and resistant (HB 101 K-12 transformed to express β-lactamase) E. coli. Using Lennox LB as the medium. serial dilutions of the test compounds were performed in a 96-well plate and then inoculated with E. coli before incubating for 16-20 hours at 35° C. The bacterial growth was monitored by recording each well's absorbance at 600 nm (OD600.) The OD600 values of E. coli suspensions incubated with various compounds were compared in order to assess their activities.
FIG. 7: OD600 of susceptible and resistant K-12 E. coli cultures against DB4-51 and known antibiotics as a function of concentration. Ampicillin has a penicillin core and cephalexin has a cephalosporin core. Cultures were grown in LB broth at 37° C. while shaking at 200 rpm for 18 hours and then diluted to an OD600 of 0.005 before adding the compounds. Plates were grown at 35° C. while shaking at 200 rpm and the OD600 was recorded after 18 hours.
Table 1: Calculated IC50 values for DB4-51, cephalexin, ampicillin, and pyrithione. These values were derived by fitting the data to a log dose-response curve and reporting the concentration corresponding to half the maximum OD600 value for each compound.

Where [3] appears, read: Escherichia coli, LB + 10 μM CuCl2.
Where [4] appears, read: Escherichia coli, LB + 500 μM BCS.

Consider `CC1(C)S[C@@H]2[C@H](NC(=O)[C@H](N)c3ccccc3)C(=O)N2[C@H]1C(=O)O` [Ampicillin], for which the IC50 (usually the concentration needed to halve the response being measured) in the test with UTI89 E. coli (LB broth) was 0.003 µM; in the test on UTI89 E. coli (LB broth, listed as ampicillin) it was 3 µM; in test [1] (Klebs Isolate 1), 142 µM; in test [1] (Klebs Isolate 2), greater than 500 µM; in test [1] (Klebs Isolate 3), 55 µM; in test [1] (Klebs Isolate 4), greater than 500 µM. Besides, the IC50 in test [1] (Klebs Isolate 5) was 175 µM; in test [1] (Klebs Isolate 6) it was 118 µM; in test [1] (Klebs Isolate 7) it was greater than 500 µM; in test [1] (Klebs Isolate 8) it was greater than 500 µM; in test [1] (Klebs Isolate 9) it was greater than 500 µM; in test [1] (Klebs Isolate 10), greater than 500 µM. For the same compound, the IC50 in test [1] (Klebs Isolate 11) was 251 µM; in test [1] (Klebs Isolate 12), 112 µM; in test [1] (Klebs Isolate 13), greater than 500 µM; in test [2], less than 18 µM. Further, the “activity against susceptible strain (FIG. 7)” value in test [2] (susceptible strain of E. coli) is “very active”.

Consider `O=C(Cc1ccccc1)N[C@@H]1C(=O)N2C(C(=O)O)=C(CSc3cccc[n+]3[O-])CS[C@H]12` [DB4-51, 2-((((6R,7R)-2-carboxy-8-oxo-7-(2-phenylacetamido)-5-thia-1-azabicyclo[4.2.0]oct-2-en-3-yl)methyl)thio)pyridine 1-oxide], for which the IC50 in the test on UTI89 E. coli (setting [3]) is 0.021 µM; with UTI89 E. coli (setting [4]), 0.017 µM; in test [1] (Klebs Isolate 1), 25 µM; in test [1] (Klebs Isolate 2) it was 45 µM; in test [1] (Klebs Isolate 3), 163 µM; in test [1] (Klebs Isolate 4), 133 µM. The IC50 in test [1] (Klebs Isolate 5) was determined as 49 µM; in test [1] (Klebs Isolate 6) it was 47 µM; in test [1] (Klebs Isolate 7) it was 9 µM; in test [1] (Klebs Isolate 8) it was 30 µM; in test [1] (Klebs Isolate 9), 10 µM; in test [1] (Klebs Isolate 10) it was 150 µM. Further, the IC50 in test [1] (Klebs Isolate 11) was 34 µM; in test [1] (Klebs Isolate 12) it was 52 µM; in test [1] (Klebs Isolate 13), greater than 500 µM; in test [2], 80 µM.

For `Cc1csc(=S)n1OCC1=C(C(=O)O)N2C(=O)[C@@H](NC(=O)Cc3ccccc3)[C@H]2SC1` [DB4-162, (6R,7R)-3-(((4-methyl-2-thioxothiazol-3(2H)-yl)oxy)methyl)-8-oxo-7-(2-phenylacetamido)-5-thia-1-azabicyclo[4.2.0]oct-2-ene-2-carboxylic acid], the IC50 in the test with UTI89 E. coli (setting [3]) was found to be 97 µM; in the test on UTI89 E. coli (setting [4]), 77 µM; in the test on UTI89 E. coli (Escherichia coli, LB broth) it was 93 µM.

On to `[O-][n+]1ccccc1S` [PT, 2-mercaptopyridine N-oxide], for which the IC50 in the test with UTI89 E. coli (setting [3]) came to 0.004 µM; with UTI89 E. coli (setting [4]), 0.006 µM; in the test on UTI89 E. coli (Escherichia coli, LB broth), 0.002 µM; in test [1] (Klebs Isolate 1), 10 µM; in test [1] (Klebs Isolate 2), 5 µM; in test [1] (Klebs Isolate 3), 21 µM. Further, the IC50 in test [1] (Klebs Isolate 4) stood at 9 µM; in test [1] (Klebs Isolate 5) it was 11 µM; in test [1] (Klebs Isolate 6), 6 µM; in test [1] (Klebs Isolate 7), 10 µM; in test [1] (Klebs Isolate 8) it was 10 µM; in test [1] (Klebs Isolate 9) it was 9 µM. Moreover, the IC50 is 5 µM in test [1] (Klebs Isolate 10); 6.5 µM in test [1] (Klebs Isolate 11); 8 µM in test [1] (Klebs Isolate 12); 11 µM in test [1] (Klebs Isolate 13); less than 18 µM in test [2].
